Reference: patent US5837706A, “Drug for neuroprotection” (Daiichi Pharmaceutical Co., Ltd., priority 1993, dated 1998)
Entries after “also recorded” stand apart in the source; their conditions may differ. Like-named read-outs stand apart in the source and are kept apart here.

Tests used:
[1] = test system: hippocampal calmodulin; assay: Effect on intracellular localization of hippocampal calmodulin in hippocampal homogenate (radioimmunoassay); type: biochemical, gerbil; conditions: for Calmodulin Content, Membrane Fraction / Calmodulin Content, Soluble Fraction: hippocampal homogenate, 37° C., 30 minutes, 1 mM CaCl2, or 1 mM CaCl2 + 10 μM compound A; for Calmodulin Content, Membrane Fraction / Calmodulin Content, Soluble Fraction / effect on the behavior of calmodulin in the presence of EGTA: 1 mM EGTA; for Calmodulin Content, Membrane Fraction: control 8.8 ± 0.25; for Calmodulin Content, Soluble Fraction: control 4.5 ± 0.13
Procedure: The hippocampus of a gerbil was homogenized with 20 mM tris buffer (pH 7.5) containing 0.1 mM leupeptin, 0.1 mM PMSF and 0.01 mg/ml of aprotinin. […] The precipitate was solubilized with 0.1% Lubrol PX. Then the calmodulin contents in the soluble fraction and the membrane fraction were determined by radioimmunoassay.

[2] = test system: fodrin; assay: Effect of calcium ion on breakdown of cytoskeltal protein fodrin in hippocampal homogenate (western blotting); type: biochemical, gerbil; conditions: 1 mM CaCl2 or 1 mM EGTA, 37° C., 1 hour
Procedure: The hippocampus taken out from a gerbil was homogenized with 20 mM tris buffer (pH 7.5). […] Then the homogenate was centrifuged at 10,000×g for 30 minutes. After separating proteins contained in the supernatant fraction by SDS-PAGE, the proteins were identified by western blotting with the use of a fodrin antibody (rabbit anti α-Spectrin) and a calmodulin antibody (sheep anti-bovine calmodulin).

[3] = test system: delayed neuronal cell death; conditions: Kogure et al. 1990; cited from earlier work
[4] = test system: hippocampal CA1 neuronal cells; assay: Change in hippocampal neuronal cells in cerebral ischemic model; type: in vivo, gerbil; conditions: for Hippocampal Neuronal Cell Density: 100 mg/kg orally 1 hour after 5 min ischemia, CA1, 7 days, n = 9-10, normal 194 ± 6.1, ischemia 9 ± 1.3; for protective effect on neuronal cells / suppression of neuronal cell death: cerebral ischemia, gerbil, 100 mg/kg orally 1 hour after ischemia
Procedure: When transient cerebral ischemia was loaded to a gerbil, necrosis of hippocampal cells was observed from several days thereafter. This change is called delayed neuronal cell death. Cerebral ischemia was loaded to a gerbil for 5 minutes. Seven days thereafter, the animal was sacrificed and the neuronal cells remaining in the hippocampal CA1 region were counted. Most of the hippocampal CA1 cells died due to the cerebral ischemia.

[5] = test system: fodrin; assay: Change in fodrin in cerebral ischemic model (western blotting); type: in vivo; conditions: cerebral ischemic model of gerbil; 100 mg/kg 1 hour before ischemia, evaluated 48 hours thereafter
Procedure: Both common carotid arteries of a gerbil were ligated for 10 minutes to thereby prepare a cerebral ischemic model. Four, 24 and 48 hours after allowing the blood stream to flow again, the hippocampus was taken out and homogenized with 20 mM tris buffer (pH 7.5) containing 0.1 mM leupeptin, 0.1 mM PMSF and […]. After centrifuging at 10,000×g for 30 minutes, proteins in the supernatant were separated by SDS-PAGE. Then fodrin and breakdown products thereof were identified by the same method as the one described in Pharmacological Example 3. The compound B (100 mg/kg) was administered 1 hour before cerebral ischemia and evaluated 48 hours thereafter. Fodrin breakdown products were little detected from the normal gerbil. In the case of the cerebral ischemic model, on the other hand, breakdown products appeared 4 hours after allowing the blood stream to flow again and similar bands were observed after 48 hours.

[6] = test system: hippocampal calmodulin; assay: Effect on intracellular localization of hippocampal calmodulin in cerebral ischemic gerbil (radioimmunoassay); type: in vivo; conditions: for increase in the calmodulin content in the membrane fraction / translocation of calmodulin after cerebral ischemia: cerebral ischemic model of gerbil, 100 mg/kg orally, 24 hours after ischemia
Procedure: Both common carotid arteries of a gerbil were ligated for 10 minutes. One hour and 24 hours after allowing the blood stream to flow again, the calmodulin content in the hippocampus was determined by radioimmunoassay. The compound A (100 mg/kg) was suspended in 0.5% methylcellulose and orally administered to the animal 1 hour before cerebral ischemia.

[7] = target: T1, calmodulin-depending phosphodiesterase (CaM-PDE) / calmodulin (Bos taurus, UniProt P62157); assay: Calmodulin inhibition effect: inhibition of calmodulin-depending phosphodiesterase (PDE); type: biochemical, bovine
T1 construct: calmodulin (CaM, from bovine brain); from tissue; host or cells: bovine brain
Procedure: The calmodulin inhibition effect of a compound was evaluated by using its effect of inhibiting calmodulin-depending phosphodiesterase (PDE) as an index. […] After ceasing the reaction by heating in a boiling water bath for 1 minute, snake venom (1 mg/ml) was added thereto and the resulting mixture was reacted at 30° C. for 10 minutes to thereby convert 5'-GMP formed by PDE into guanosine. Next, the unreacted cGMP was adsorbed by an ion exchange resin (AGI-X8). Subsequently, the mixture was centrifuged and the radioactivity of the supernatant was measured with a liquid scintillation counter.

[8] = test system: fodrin; conditions: Seubert et al., Synapse 1987; cited from earlier work
[9] = 100 mg/kg orally 1 hour before 10 min ischemia, 24 hrs after ischemia, n = 10-12

SMILES | Calmodulin Content, Membrane Fraction [1] [μg/mg protein] | stable breakdown products of fodrin (140-150 kDa) [2] | Calmodulin Content, Soluble Fraction [1] [μg/mg protein] | effect on the behavior of calmodulin in the presence of EGTA [1] | Hippocampal Neuronal Cell Density [4] | protective effect on neuronal cells / suppression of neuronal cell death [4] | fodrin breakdown products due to cerebral ischemia [5] | increase in the calmodulin content in the membrane fraction / translocation of calmodulin after cerebral ischemia [6] | selectivity for calmodulin [7] | also measured
[Ca+2].[Cl-].[Cl-] [CaCl2, calcium chloride, reference compound] | 11.4 ± 0.34 | bands of the breakdown products appeared | – | – | – | – | – | – | – | calmodulin content in the membrane fraction, change in words ([1]; 1 mM calcium chloride, compared with EGTA): increased
O=C(O)CN(CCOCCOCCN(CC(=O)O)CC(=O)O)CC(=O)O [EGTA, ethylenebis(oxyethylenenitrylo)tetraacetic acid, reference compound] | 7.6 ± 0.40 | little observed | 12.3 ± 0.77 | – | – | – | – | – | – | –
NCCCCCCNS(=O)(=O)c1cccc2c(Cl)cccc12 [W-7, reference compound] | – | – | – | no effect | – | – | – | – | – | effect of suppressing delayed neuronal cell death [3]: no effect
COc1ccc(Cn2nc(CCN3CCN(c4cccc(Cl)c4C)CC3)c3cc(OC)c(OC)cc32)cc1OC [compound A] | 7.1 ± 0.50 | – | 1.75 ± 0.52 | no effect | 98 ± 22.0 /mm | a protective effect on neuronal cells was clearly observed; also recorded: suppress neuronal cell death | suppress | significantly suppressed; also recorded: suppress | high selectivity for calmodulin | Calmodulin Content, Cytoplasm Fraction [6, 9]: 1.3 ± 0.08 μg/mg protein; Calmodulin Content, Membrane Fraction [6, 9]: 1.4 ± 0.05 μg/mg protein; change in calmodulin content / localization caused by calcium ion ([1]; 10 μM compound A, 1 mM calcium chloride, in vitro): significantly suppressed; IC50 [7]: 3.93 µM
COc1cc2c(CCN3CCN(c4cccc(Cl)c4C)CC3)nn(Cc3c[nH]cn3)c2cc1OC [compound B] | – | – | – | – | 131 ± 21.2 /mm | a protective effect on neuronal cells was clearly observed; also recorded: suppress neuronal cell death | scarcely detected; also recorded: suppress | suppress | high selectivity for calmodulin | IC50 ([7]; pH 7.5, 1 mM CaCl2, 30° C., 10 minutes): 5.46 µM
CN1CCN(CCCN2c3ccccc3Sc3ccc(C(F)(F)F)cc32)CC1 [trifluoropelazine] | – | – | – | – | – | – | – | – | – | breakdown of fodrin [8]: suppressed
